Test results: patent EP3842803A1, “CXCL14 IN POLYCYSTIC OVARY SYNDROME” (Katholieke Universiteit Leuven, priority 2019, dated 2021)

Columns and labels:
CXCL14 mRNA expression [1] = assay: cells; format: cell-based, human; details: for effect of addition to pioglitazone on pioglitazone induction of CXCL14 mRNA expression: added to pioglitazone, 10 days across differentiation (Figure 2B)
Experimental: (§1) • Figure 1 • A. Baseline circulating CXCL14 concentrations in girls with polycystic ovary syndrome (PCOS, N= 52) and in healthy age-matched controls (N= 21). Data are mean + SEM. • B. Longitudinal results of CXCL14 serum concentrations in girls with PCOS who received an oral contraceptive (OC, white circles, N= 16) or low-dose spironolactone, pioglitazone and metformin (SPIOMET, black circles, N= 15). […] SGBS human pre-adipocytes were treated chronically (10 days) with pioglitazone, spironolactone or metformin alone (A) or in combination (B, C, D) at the indicated doses across the adipoipogeic differentiation process. • A, B. CXCL14 transcript levels are presented as means + SEM from 4-5 independent experiments, and are expressed relative to values from untreated control cells. • C. […] SGBS cells were treated acutely (24h, at the indicated doses) when already differentiated adipocytes.
(§2) Cell culture reagents and drugs were from Sigma.

CXCL14 mRNA expression [2] = assay: CXCL14 transcript levels (qRT-PCR) in already differentiated SGBS adipocytes treated acutely (24h); format: cell-based, human; details: acute 24h treatment; spironolactone at 10 µM (Figure 3A)
Experimental: as §1, §2

CXCL14 protein [3] = assay: CXCL14 protein (ELISA) in cell culture medium of differentiating SGBS cells; format: cell-based, human; details: chronic treatment across differentiation; detectable only under pioglitazone treatment
Description: as §2

CXCL14 protein [4] = details: sgbs adipocytes, 24 h
Experimental: as §1, §2

Compound: CN(C)C(=N)N=C(N)N [metformin]
- effect of addition to pioglitazone on pioglitazone induction of CXCL14 mRNA expression (CXCL14 mRNA expression [1]): did not modify
- CXCL14 mRNA expression on already differentiated human adipocytes (CXCL14 mRNA expression [2]): Neither pioglitazone nor metformin alone had any effect

Compound: CCc1ccc(CCOc2ccc(CC3SC(=O)NC3=O)cc2)nc1 (stereo not shown) [pioglitazone]
- fold induction at 0.1 µM (CXCL14 mRNA expression [1]; Homo sapiens, SGBS, 240 h, read-out: induction of CXCL14 mRNA expression): ~10
- CXCL14 protein in the cell culture medium of differentiating cells (CXCL14 protein [3]): 0.185 ng/mL

Compound: CC(=O)S[C@@H]1CC2=CC(=O)CC[C@]2(C)[C@H]2CC[C@@]3(C)[C@@H](CC[C@@]34CCC(=O)O4)[C@H]12 [spironolactone]
- effect of addition to pioglitazone on pioglitazone induction of CXCL14 mRNA expression (CXCL14 mRNA expression [1]): reduced significantly
- CXCL14 mRNA expression on already differentiated human adipocytes (CXCL14 mRNA expression [2]): significant induction
- increase of the CXCL14 protein levels released by adipocytes to the cell culture medium (CXCL14 protein [4]): ~8 fold
